Source: patent publication US10111950B2, “Modified glycolipids and methods of making and using the same” (Vaccinex, Inc., priority 2013, dated 2018)

Experiments:
plate bound mCD1d = target: T1, plate bound mCD1d (Mus musculus, UniProt P11609); assay: Ligand binding to plate bound mCD1d with and without UV activation, ELISA using mAb L363; set-up: species or system murine; details: for dissociation of CD1d:glycolipid complex after 3 days (L363 ELISA): 3 days in PBS+0.05% Triton X-100 at 25° C.; for CD1d/glycolipid complex formation detected by mAb L363 ELISA: plate bound mCD1d 10 μg/ml, glycolipid 5 μM
T1 construct: recombinant soluble murine CD1d (mCD1d) was diluted to 400 μg/ml in PBS pH 7.2
T1 sequence (P11609 22-305 limits assumed): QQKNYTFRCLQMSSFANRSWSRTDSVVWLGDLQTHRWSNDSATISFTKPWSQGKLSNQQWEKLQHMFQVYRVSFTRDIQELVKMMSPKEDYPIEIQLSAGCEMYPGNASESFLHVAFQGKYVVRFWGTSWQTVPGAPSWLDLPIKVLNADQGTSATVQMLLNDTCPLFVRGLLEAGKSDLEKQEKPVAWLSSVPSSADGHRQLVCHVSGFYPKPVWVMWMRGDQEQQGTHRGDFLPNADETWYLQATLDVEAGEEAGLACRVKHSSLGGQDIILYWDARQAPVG
T1 sequence (P01887 21-119 partner): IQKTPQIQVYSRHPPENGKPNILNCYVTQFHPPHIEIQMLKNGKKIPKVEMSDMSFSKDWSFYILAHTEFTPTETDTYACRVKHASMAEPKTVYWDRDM
Method: (§1) The ligand binding affinity of plate bound mCD1d was measured by ELISA using mAb L363 to detect murine CD1d/αGalCer complexes. ELISA plates were coated with mCD1d (10 μg/ml, 30 μl/well) overnight at 4° C. in PBS pH 8.2. Supernatant was then removed along with any unbound protein. Glycolipids (5 μM, 30 μl/well) were loaded and allowed to incubate overnight at 25° C. Supernatant was again removed and the complexes were washed three times with PBS to remove any unbound glycolipid. For those complexes that underwent UV activation, UV crosslinking was performed in solution (30 μl/well PBS) and at a fixed wavelength of 365 nm from a UV lamp (RAD-FREE long wave UV lamp, Schleicher & Schuell). The UV lamp was placed one inch from the sample and the sample was allowed to sit on ice for 1 hr.

[1] = tested on: iNKT hybridoma DN3A4-1.2 with plate bound mCD1d; assay: Plate bound mCD1d:glycolipid complexes with and without UV activation, iNKT DN3A4-1.2 hybridoma stimulation assay (IL-2 ELISA); type: cell-based, murine; details: for iNKT stimulation post-dissociation (IL-2 ELISA): after 3 days dissociation, non-crosslinked mCD1d complexes (UV state not stated for 7DW8-5)
Method: (§2) The ligand binding affinity of plate bound mCD1d was detected by iNKT DN3A4-1.2 hybridoma stimulation assay. mCD1d (10 μg/ml) was loaded with glycolipids (5 μM) overnight at 25° C. ELISA plates were coated with mCD1d:GC complexes (2.5 μg/ml, 30 μl/well) for 12-18 hours at 4° C. in PBS pH 8.2. Supernatant was then removed and the complexes were washed three times with PBS to remove any unbound glycolipid and protein. For those complexes that underwent UV activation, UV crosslinking was performed in solution (30 μl/well PBS) and at a fixed wavelength of 365 nm from a UV lamp (RAD-FREE long wave UV lamp, Schleicher & Schuell). The UV lamp was placed one inch from the sample and the sample was allowed to sit on ice for 1 hr. Supernatant was then removed and the complexes were washed three times with PBS to remove any unbound glycolipid and protein.

[2] = target: T2, soluble recombinant mCD1d (Mus musculus, UniProt P11609); assay: Direct comparison of DB12-8 and 7DW8-5 complexes with soluble recombinant mCD1d, L363 ELISA; type: binding, murine
T2 construct: A soluble recombinant mCD1d protein (10 μg/ml) was loaded with glycolipids
T2 sequence (P11609 22-305 limits assumed): T1 sequence (P11609 22-305 limits assumed)
T2 sequence (P01887 21-119 partner): T1 sequence (P01887 21-119 partner)
Method: as §1, §2
A soluble recombinant mCD1d protein (10 μg/ml) was loaded with glycolipids (5 μM) overnight at 25° C. in PBS pH8.2 with 0.05% tyloxapol. The mCD1d:GC complexes (10 μg/ml, 30 μl/well) were coated onto the high binding ELISA plates, overnight at 4° C. UV exposure and incubation to allow dissociation over 3 days was performed as described in Examples 6 and 7.

mCD1d.CEA fusion protein = assay: Direct comparison of DB12-8 and 7DW8-5 complexes with mCD1d.CEA fusion protein, L363 ELISA; type: binding, murine
Method: as §1, §2
mCD1d.CEA (10 μg/ml), a recombinant mCD1d protein genetically fused with a single chain Fv antibody fragment specific for the tumor associated antigen CEA, was loaded with glycolipids (5 μM) overnight at 25° C. in PBS pH8.2 with 0.05% tyloxapol. The mCD1d.CEA:GC complexes (10 μg/ml, 30 μl/well) were coated onto wells of high binding ELISA 96 well plates overnight at 4° C. UV exposure and incubation to allow dissociation over 3 days were performed as described in Examples 6 and 7.
A scale up of the complex formation in solution was performed using a 10-fold increased concentration of protein and glycolipid and the results are shown in FIG. 9C-9D. mCD1d.CEA (100 μg/ml) was loaded with DB12-8 (50 μM respectively) overnight at 25° C. in PBS pH8.2 with 0.05% tyloxapol. DB12-8:mCD1d.CEA complexes were diluted down to 10 μg/ml and were coated onto the high binding ELISA plates (30 μl/well), overnight at 4° C. UV exposure and incubation to allow dissociation over 3 days were performed as described in Examples 6 and 7.

[3] = tested on: iNKT hybridoma DN3A4-1.2 with murine CD1d-expressing antigen presenting cells; assay: iNKT hybridoma stimulation (IL-2 secretion) with mCD1d expressing BMDCs; type: cell-based, mouse; details: BMDCs from C57BL/6 mice, BPGC 5 to 0.01 μg/ml for 3 hrs, hybridoma 18 hrs
Method: The activated natural killer cells were calculated based on those secreting IL-2. Specifically, bone marrow-derived dendritic cells (BMDCs) from C57BL/6 mice (10,000 cells in 100 μl culture medium) were plated in wells of a 96 well tissue culture plate and allowed to adhere to the plates for 30 minutes at 37° C. The cultures were then exposed to varying BPGC concentrations ranging between 5 and 0.01 μg/ml in 100 μl for 3 hrs at 37° C. Glycolipids not taken up by BMDCs were removed by washing with culture medium. To detect the BPGC presentation by CD1d, iNKT hybridoma DN3A4-1.2 (5000 cells in 100 μl volume) was added and the stimulation was detected by the level of IL-2 secreted in the supernatant following 18 hrs of incubation at 37° C.

[4] = tested on: iNKT hybridoma DN3A4-1.2 with human CD1d transfected HeLa cells; assay: iNKT hybridoma stimulation (IL-2 secretion) with hCD1d expressing HeLa cells; type: cell-based; details: BPGC 5 to 0.01 μg/ml for 3 hrs, hybridoma 18 hours
Method: The activated natural killer cells were again calculated based on those secreting IL-2. Specifically, plate bound human CD1d transfected HeLa cells (10,000 cells in 100 μl medium) were plated in a 96 well tissue culture plate and allowed to adhere to the plates for 30 minutes at 37° C. Adherent HeLa cells were treated with varying BPGC concentrations ranging between 5 and 0.01 μg/ml in 100 μl for 3 hrs at 37° C. Glycolipid not taken up by cells was removed by washing with medium. To detect the BPGC presentation by CD1d, iNKT hybridoma DN3A4-1.2 (5000 cells in 100 μl volume) was added and the stimulation was detected by the level of IL-2 secreted in the supernatant following incubation at 37° C. for 18 hours.

Q: `CCCCCCCCCCCCCC[C@@H](O)[C@@H](O)[C@H](CO[C@H]1O[C@H](CO)[C@H](O)[C@H](O)[C@H]1O)NC(=O)CCCCCCCCCCc1ccc(F)cc1` [Compound 7DW8-5, reference compound] was tested. Which “dissociation of CD1d:glycolipid complex after 3 days (L363 ELISA)” value (shortened to “dissociation of CD1d:glycolipid complex”) (plate bound mCD1d; UV irradiated 365 nm 1 hr) did it give?
A: dissociated after 3 days

Q: And the “dissociation of CD1d:glycolipid complex” value (plate bound mCD1d; not UV irradiated)?
A: dissociated after 3 days

Q: What about the “iNKT stimulation post-dissociation (IL-2 ELISA)” value [1] of the same compound?
A: did not stimulate iNKT post-dissociation

Q: What about the “dissociation after 3 days (L363 ELISA signal)” value (“dissociation after 3 days” below) ([2]; UV exposure at 365 nm) of the same compound?
A: almost complete loss of signal

Q: What about the “affinity to CD1d, complex detected by L363 ELISA” value ([2]; mCD1d 10 μg/ml, glycolipid 5 μM) of the same compound?
A: showed affinity to CD1d

Q: And the “dissociation after 3 days” value ([2]; non UV-crosslinked state)?
A: almost complete loss of signal

Q: And the “dissociation after 3 days” value (mCD1d.CEA fusion protein; UV exposure at 365 nm)?
A: almost complete loss of signal

Q: And the “affinity to CD1d, complex detected by L363 ELISA” value (mCD1d.CEA fusion protein; mCD1d.CEA 10 μg/ml, glycolipid 5 μM)?
A: showed affinity to CD1d

Q: And the “dissociation after 3 days” value (mCD1d.CEA fusion protein; non UV-crosslinked state)?
A: almost complete loss of signal

Q: Which “iNKT stimulation, level of IL-2 secreted in the supernatant” value [3] does the source give for `CCCCCCCCCCCCCC[C@@H](O)[C@@H](O)[C@H](COC1OC(CO)C(O)C(O)C1O)NC(=O)CCCCCCCCCOCc1cccc(C(=O)c2ccccc2)c1` (some centres unmarked) [DB11-2] here?
A: stimulated iNKTs most efficiently at a low concentration of 0.1 μg/ml

Q: And the “iNKT stimulation, level of IL-2 secreted in the supernatant” value [4]?
A: stimulatory toward iNKT cells

Q: What about the “dissociation of CD1d:glycolipid complex” value (plate bound mCD1d; UV irradiated 365 nm 1 hr) of the same compound?
A: no significant dissociation

Q: And the “CD1d/glycolipid complex formation detected by mAb L363 ELISA” value (plate bound mCD1d)?
A: highest levels of immunoreactive complex formation

Q: And the “iNKT hybridoma stimulation following UV crosslinking (IL-2 ELISA)” value ([1]; UV crosslinked 365 nm 1 hr)?
A: second best stimulator

Q: What about the “iNKT stimulation post-dissociation (IL-2 ELISA)” value [1] of the same compound?
A: some, albeit reduced, iNKT stimulation even after dissociation

Q: For `CCCCCCCCCCCCCCCCCCCCCCCCCC(=O)N[C@@H](CO[C@H]1O[C@H](CO)[C@H](O)[C@H](O)[C@H]1O)[C@H](O)[C@H](O)CCCCCCCCCCCCCC` [KRN7000, (2S,3S,4R)-1-O-(α-D-galactopyranosyl)-N-hexacosanoyl-2-amino-1,3,4-octadecanetriol, reference compound], which “dissociation of CD1d:glycolipid complex” value (plate bound mCD1d; UV irradiated 365 nm 1 hr) is on record?
A: dissociated after 3 days

Q: And the “dissociation of CD1d:glycolipid complex” value (plate bound mCD1d; not UV irradiated)?
A: dissociated after 3 days

Q: For `CCCCCCCCCCCCCC[C@@H](O)[C@@H](O)[C@H](COC1OC(CO)C(O)C(O)C1O)NC(=O)CCCCCCCCCCCOCc1cccc(C(=O)c2ccccc2)c1` (some centres unmarked) [DB12-9], which “dissociation of CD1d:glycolipid complex” value (plate bound mCD1d; UV irradiated 365 nm 1 hr) is on record?
A: no significant dissociation

Q: And the “CD1d/glycolipid complex formation detected by mAb L363 ELISA” value (plate bound mCD1d)?
A: highest levels of immunoreactive complex formation

Q: And the “iNKT stimulation post-dissociation (IL-2 ELISA)” value [1]?
A: some, albeit reduced, iNKT stimulation even after dissociation
